The test system of data set [1] is Monocotyledonous and dicotyledonous test plants. Put plainly: Herbicidal action, application pre-emergence (Example B1). Type of data set: in vivo. On the set-up: key: 10=total damage to plant; 0=no damage to plant. The conditions noted are these: 1000 g/ha, scale 10=total damage to plant, 0=no damage to plant, evaluated after 9 or 13 days. Here is the method:
Monocotyledonous and dicotyledonous test plants were sown in sterilised standard soil in seed trays each having 96 cells. After one day (pre-emergence) or after 8 to 9 days cultivation (post-emergence) under controlled conditions in a climatic chamber (cultivation at 17/23° C.; 13 hours light; 50-60% humidity; after application at 19/24° C.), the plants were treated with an aqueous spray solution of 1000 mg/l of the active ingredient used (including 10% DMSO as solvent). The plants were grown on in the climatic chamber until the test was evaluated (10=total damage to plant, 0=no damage to plant) after 9 or 13 days.

For data set [2], the system named is maize (Marista). Put plainly: Pre-emergent safening test on maize (Example E1). The conditions noted are these: Comp. 1.01 WP 25% AW/W alone, evaluated after 14 days. Format: in vivo. Here is the method: The test plants were sown in seed trays under greenhouse conditions. A standard earth was used as the culture substrate. In a pre-emergent stage, the herbicides were applied both by themselves and in a mixture with safeners to the soil surface. The application was carried out with an aqueous suspension of the test substances, prepared from a 25% wettable powder (Example F3, b according to WO 97/34485) or from a suspension concentrate (Example F8 according to WO 97/34485), to achieve a field equivalent of 200 1/ha. The tests were evaluated after 14 days (100%=plants completely dead; 0%=no phytotoxic action on the plants).

One may read the melting point as the temperature of the solid-liquid transition.

With `CC1(C)CC(S(=O)(Cc2c(F)cccc2F)=NC(=O)c2ccc(Cl)cc2)=NO1` (stereo not shown) [1.03], the melting point lay in the range of 154 to 156 °C. Further, in data set [1], the “Herbicidal action on Agrostis (damage rating)” value (“Herbicidal action on Agrostis” below) turned out to be 7, the “Herbicidal action on Digitaria (damage rating)” value (shortened to “Herbicidal action on Digitaria”) is reported as 8, the “Herbicidal action on Poa (damage rating)” value came out at 10 and the “Herbicidal action on Setaria (damage rating)” value (from here on “Herbicidal action on Setaria”) was found to be 8.
Consider `CC1(C)CC(S(=O)(Cc2c(F)cccc2F)=NC=O)=NO1` (stereo not shown) [1.13], for which, in data set [1], the “Herbicidal action on Agrostis” value is recorded as 10, the “Herbicidal action on Digitaria” value stood at 9, the “Herbicidal action on Poa (damage rating)” value is recorded as 10 and the “Herbicidal action on Setaria” value was 9.
On to `CC1(C)CC(S(=N)(=O)C(F)c2ccccc2OC(F)(F)F)=NO1` (mixture of isomers) [1.56], for which, in data set [1], the “Herbicidal action on Agrostis” value amounted to 10, the “Herbicidal action on Digitaria” value worked out at 9, the “Herbicidal action on Poa (damage rating)” value came to 10 and the “Herbicidal action on Setaria” value amounted to 8.
Consider `CC1(C)CC(S(=N)(=O)Cc2ccccc2OC(F)F)=NO1` (stereo not shown) [1.25], for which, in data set [1], the “Herbicidal action on Agrostis” value was found to be 10, the “Herbicidal action on Digitaria” value is 9, the “Herbicidal action on Poa (damage rating)” value is recorded as 10 and the “Herbicidal action on Setaria” value came out at 8.
`CC1(C)CC(S(=O)(Cc2c(F)cccc2F)=NS(=O)(=O)C(F)(F)F)=NO1` (stereo not shown) [1.14, 3-{2,6-difluoro-phenylmethane(N-trifluoromethylsulphonyl)-sulfoximinyl)-5,5-dimethyl-4,5-dihydroisoxazole] gave a melting point of 108 °C. Moreover, in data set [1], the “Herbicidal action on Agrostis” value is 10, the “Herbicidal action on Digitaria” value turned out to be 7, the “Herbicidal action on Poa (damage rating)” value amounted to 10 and the “Herbicidal action on Setaria” value is 0.
Take `CC(Cl)OC(=O)N=S(=O)(Cc1c(F)cccc1F)C1=NOC(C)(C)C1` (mixture of isomers) [1.17]: in data set [1], the “Herbicidal action on Agrostis” value is 10, the “Herbicidal action on Digitaria” value was 8, the “Herbicidal action on Poa (damage rating)” value came out at 10 and the “Herbicidal action on Setaria” value is on record as 8.
Take `CC1(C)CC(S(=N)(=O)Cc2cc(F)ccc2F)=NO1` (stereo not shown) [1.34]: in data set [1], the “Herbicidal action on Agrostis” value is 10, the “Herbicidal action on Digitaria” value was 9, the “Herbicidal action on Poa (damage rating)” value is 10 and the “Herbicidal action on Setaria” value turned out to be 8.
For the compound `CC1(C)CC(S(=O)(=NC(=O)C(F)(F)F)C(Cl)c2c(F)cccc2F)=NO1` (stereo not shown) [1.05], in data set [1], the “Herbicidal action on Agrostis” value was 10, the “Herbicidal action on Digitaria” value came to 9, the “Herbicidal action on Poa (damage rating)” value is given as 10 and the “Herbicidal action on Setaria” value amounted to 9.
`CC1(C)CC(S(=O)(Cc2c(F)cccc2F)=NC(=O)C(F)(F)F)=NO1` (stereo not shown) [1.04, 3-{2,6-difluoro-phenylmethane(N-trifluoromethyl-carbonyl)sulfoximinyl)-5,5-dimethyl-4,5-dihydroisoxazole] showed a melting point of 143 to 144 °C. In addition, in data set [1], the “Herbicidal action on Agrostis” value is recorded as 10, the “Herbicidal action on Digitaria” value came to 10, the “Herbicidal action on Poa (damage rating)” value turned out to be 10 and the “Herbicidal action on Setaria” value turned out to be 10.
Consider `CC(=O)N=S(=O)(Cc1c(F)cccc1F)C1=NOC(C)(C)C1` (stereo not shown) [1.07], for which, in data set [1], the “Herbicidal action on Agrostis” value stood at 10, the “Herbicidal action on Digitaria” value is 9, the “Herbicidal action on Poa (damage rating)” value was determined as 10 and the “Herbicidal action on Setaria” value is 9.
With `CC1(C)CC(S(=N)(=O)Cc2ccccc2C(F)(F)F)=NO1` (stereo not shown) [1.31], in data set [1], the “Herbicidal action on Agrostis” value is reported as 10, the “Herbicidal action on Digitaria” value is recorded as 8, the “Herbicidal action on Poa (damage rating)” value is 8 and the “Herbicidal action on Setaria” value is 8.
Consider `CC1(C)CC(S(=N)(=O)Cc2ccc(F)cc2F)=NO1` (stereo not shown) [1.30], for which, in data set [1], the “Herbicidal action on Agrostis” value was found to be 10, the “Herbicidal action on Digitaria” value is recorded as 10, the “Herbicidal action on Poa (damage rating)” value was found to be 10 and the “Herbicidal action on Setaria” value is on record as 8.
As for `CC1(C)CC(S(=N)(=O)Cc2cc(F)cc3c2OCOC3)=NO1` (stereo not shown) [1.48], in data set [1], the “Herbicidal action on Agrostis” value is on record as 0, the “Herbicidal action on Digitaria” value came out at 8, the “Herbicidal action on Poa (damage rating)” value is 0 and the “Herbicidal action on Setaria” value is listed as 8.
Regarding `CC1(C)CC(S(=O)(Cc2c(F)cccc2F)=NC(=O)c2cccnc2Cl)=NO1` (stereo not shown) [1.21], in data set [1], the “Herbicidal action on Agrostis” value came out at 10, the “Herbicidal action on Digitaria” value is given as 9, the “Herbicidal action on Poa (damage rating)” value stood at 10 and the “Herbicidal action on Setaria” value is reported as 9.
Regarding `CC1(C)CC(S(=N)(=O)Cc2c(F)cccc2C(F)(F)F)=NO1` (stereo not shown) [1.32], in data set [1], the “Herbicidal action on Agrostis” value is given as 10, the “Herbicidal action on Digitaria” value stood at 10, the “Herbicidal action on Poa (damage rating)” value was found to be 10 and the “Herbicidal action on Setaria” value came to 9.
Regarding `CC1(C)CC(S(=O)(Cc2c(F)cccc2F)=N[N+](=O)[O-])=NO1` (stereo not shown) [1.15], in data set [1], the “Herbicidal action on Agrostis” value is 10, the “Herbicidal action on Digitaria” value amounted to 9, the “Herbicidal action on Poa (damage rating)” value is 10 and the “Herbicidal action on Setaria” value was 8.
Consider `CC1(C)CC(S(=N)(=O)Cc2c(F)cccc2F)=NO1` (stereo not shown) [Comp. 1.01], for which, in data set [1], the “Herbicidal action on Agrostis” value is listed as 10, the “Herbicidal action on Digitaria” value is given as 10, the “Herbicidal action on Poa (damage rating)” value was 10 and the “Herbicidal action on Setaria” value is 9. Further, the “phytotoxic action on maize (100%=plants completely dead; 0%=no phytotoxic action on the plants)” value in data set [2] (200 g/ha) stood at 67.5%. Besides, the “phytotoxic action on maize (100%=plants completely dead; 0%=no phytotoxic action on the plants)” value in data set [2] (400 g/ha) is 62.5%.

Source of the values: patent US7465805B2, “Isoxazoline derivatives and their use as herbicides” (Syngenta Limited, priority 2004, dated 2008).
